The term Kb denotes the equilibrium dissociation constant of an antagonist, usually derived from a functional assay. Broadly, the Ki is the dissociation constant of the complex between target and ligand, obtained from inhibition or displacement. Low values mean tighter binding, high ones weaker binding. A word on the Cmax: it is the peak of the concentration-time curve. As usually defined, the Tmax is the time from dosing to the highest level. A word on the bioavailability: it is the share of a dose that reaches the circulation, judged against a reference dose that is usually intravenous. The low end stands for poor availability, the high end for good availability. As usually defined, the Vd is a proportionality between amount in the body and measured concentration, not a real space. High values mean extensive tissue distribution, low ones confinement near the circulation. In general, clearance refers to the volume of plasma or blood freed of the substance per unit of time. In general, half-life refers to the time in which the quantity being followed falls by half.

Consider seven compounds from ChEMBL document CHEMBL1275364, “Diaryldiamines with dual inhibition of the histamine H(3) receptor and the norepinephrine transporter and the efficacy of 4-(3-(methylamino)-1-phenylpropyl)-6-(2-(pyrrolidin-1-yl)ethoxy)naphthalen-1-ol in pain” (J Med Chem, 2010).

The target of data set [1] is T1, Histamine H3 receptor (Homo sapiens, UniProt Q9Y5N1). Put plainly: Antagonist activity at human recombinant histamine H3 receptor expressed in HEK cells assessed as inhibition of RAMH-induced [35S]GTPgammaS binding by liquid scintillation counting. The class given is functional, cell-based. The note with it: HEK293. In general terms: Binding of GTPγS marks nucleotide exchange on a G protein.
T1 sequence (Q9Y5N1 whole entry): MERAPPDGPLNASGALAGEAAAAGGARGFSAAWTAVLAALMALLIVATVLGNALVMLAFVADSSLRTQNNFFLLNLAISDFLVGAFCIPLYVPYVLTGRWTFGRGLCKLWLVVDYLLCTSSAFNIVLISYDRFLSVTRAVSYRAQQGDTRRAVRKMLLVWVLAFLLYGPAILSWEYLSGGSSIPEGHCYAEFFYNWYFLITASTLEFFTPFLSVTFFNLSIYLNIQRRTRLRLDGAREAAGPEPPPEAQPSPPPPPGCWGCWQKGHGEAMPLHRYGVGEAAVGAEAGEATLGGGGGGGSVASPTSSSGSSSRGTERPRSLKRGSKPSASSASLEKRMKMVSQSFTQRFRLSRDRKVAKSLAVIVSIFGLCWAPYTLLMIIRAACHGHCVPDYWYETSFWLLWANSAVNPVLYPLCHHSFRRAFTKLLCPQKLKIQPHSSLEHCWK

Data set [2] deals with Sodium-dependent serotonin transporter (Homo sapiens, UniProt P31645).
Chain of Sodium-dependent serotonin transporter (P31645 whole entry): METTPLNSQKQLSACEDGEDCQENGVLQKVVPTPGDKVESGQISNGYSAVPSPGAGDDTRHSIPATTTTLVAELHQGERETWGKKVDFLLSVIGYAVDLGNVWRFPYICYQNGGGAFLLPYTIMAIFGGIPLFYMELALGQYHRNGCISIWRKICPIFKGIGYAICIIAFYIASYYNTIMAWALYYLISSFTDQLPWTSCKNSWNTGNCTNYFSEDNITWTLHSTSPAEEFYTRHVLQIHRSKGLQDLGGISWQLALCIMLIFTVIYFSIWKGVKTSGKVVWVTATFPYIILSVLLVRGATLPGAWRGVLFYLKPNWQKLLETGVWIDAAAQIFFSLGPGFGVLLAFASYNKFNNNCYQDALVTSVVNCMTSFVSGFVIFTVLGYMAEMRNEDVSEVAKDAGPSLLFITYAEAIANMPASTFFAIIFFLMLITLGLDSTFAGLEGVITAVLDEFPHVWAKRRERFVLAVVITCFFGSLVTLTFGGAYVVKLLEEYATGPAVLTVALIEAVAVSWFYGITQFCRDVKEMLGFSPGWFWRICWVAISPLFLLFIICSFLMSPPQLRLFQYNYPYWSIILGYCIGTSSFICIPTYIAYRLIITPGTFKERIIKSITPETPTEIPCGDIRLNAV
Data set [3] deals with Histamine H3 receptor (Rattus norvegicus, UniProt Q9QYN8).
Chain of Histamine H3 receptor (Rattus norvegicus, UniProt Q9QYN8) (Q9QYN8 whole entry): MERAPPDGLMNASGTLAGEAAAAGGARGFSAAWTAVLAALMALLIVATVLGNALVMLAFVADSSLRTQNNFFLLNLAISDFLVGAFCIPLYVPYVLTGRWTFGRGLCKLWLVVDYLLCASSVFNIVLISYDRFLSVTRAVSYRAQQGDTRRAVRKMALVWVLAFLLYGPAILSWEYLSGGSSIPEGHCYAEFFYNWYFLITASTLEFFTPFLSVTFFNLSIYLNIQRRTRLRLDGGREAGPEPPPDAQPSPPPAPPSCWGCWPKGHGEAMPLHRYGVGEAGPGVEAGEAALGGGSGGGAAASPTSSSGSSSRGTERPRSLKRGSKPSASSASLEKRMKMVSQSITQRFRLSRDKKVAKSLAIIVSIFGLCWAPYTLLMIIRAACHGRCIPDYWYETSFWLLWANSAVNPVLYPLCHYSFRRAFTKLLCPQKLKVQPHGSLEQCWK
Description: Displacement of [3H]N-R-methylhistamine from rat H3 receptor
The next data set deals with Transporter (Rattus norvegicus, UniProt Q63380). Nature of the data set: biochemical.
Chain of Transporter (Q63380 whole entry): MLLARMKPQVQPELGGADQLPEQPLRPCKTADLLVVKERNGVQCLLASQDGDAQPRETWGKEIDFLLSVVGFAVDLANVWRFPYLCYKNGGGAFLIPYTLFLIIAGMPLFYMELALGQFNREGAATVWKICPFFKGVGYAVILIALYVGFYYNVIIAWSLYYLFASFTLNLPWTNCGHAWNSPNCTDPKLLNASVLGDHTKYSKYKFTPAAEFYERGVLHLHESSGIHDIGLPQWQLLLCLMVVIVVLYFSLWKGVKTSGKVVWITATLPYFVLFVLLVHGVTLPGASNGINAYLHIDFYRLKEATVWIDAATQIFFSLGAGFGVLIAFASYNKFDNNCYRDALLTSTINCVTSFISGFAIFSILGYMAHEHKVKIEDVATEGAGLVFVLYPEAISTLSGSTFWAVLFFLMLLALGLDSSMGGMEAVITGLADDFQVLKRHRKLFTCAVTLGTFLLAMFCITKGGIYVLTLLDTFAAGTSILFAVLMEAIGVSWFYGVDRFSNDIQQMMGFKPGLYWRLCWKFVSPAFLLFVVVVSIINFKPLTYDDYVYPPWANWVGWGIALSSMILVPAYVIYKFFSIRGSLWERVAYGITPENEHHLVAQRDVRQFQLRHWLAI
The target of data set [4] is T1, Histamine H3 receptor. Nature of the data set: biochemical.
Description: Displacement of [3H]N-R-methylhistamine from human H3 receptor isolated from C6 cells
Data set [5] in a line: Cmax in Sprague-Dawley rat at 1 mg/kg, ip. The class given is ADME, organism-based. Details: dose 1 mg/kg, route intraperitoneal. The note with it: in vivo.
Data set [6] in a line: Tmax in Sprague-Dawley rat at 1 mg/kg, ip. In kind it is ADME, organism-based. Details: dose 1 mg/kg, route intraperitoneal. The note with it: in vivo.
Data set [7] is described as follows: Bioavailability in Sprague-Dawley rat at 1 mg/kg, ip and iv. The class given is ADME, organism-based. The note with it: in vivo.
Data set [8] can be described thus: Volume of distribution in Sprague-Dawley rat at 1 mg/kg, iv. The class given is ADME, organism-based. Details: dose 1 mg/kg, route intravenous. The note with it: in vivo.
Data set [9] is described as follows: Clearance in Sprague-Dawley rat at 1 mg/kg, iv. The class given is ADME, organism-based. More on the design: dose 1 mg/kg, route intravenous. The note with it: in vivo.
Data set [10] can be described thus: Half life in Sprague-Dawley rat at 1 mg/kg, iv. In kind it is ADME, organism-based. Details: dose 1 mg/kg, route intravenous. The note with it: in vivo.
Data set [11] is described as follows: Plasma protein binding in Sprague-Dawley rat at 1 mg/kg, iv. In kind it is ADME, organism-based. More on the design: dose 1 mg/kg, route intravenous. The note with it: read-out: PPB (converted).
Data set [12] is described as follows: Plasma protein binding in Sprague-Dawley rat assessed as unbound fraction at 1 mg/kg, iv. In kind it is ADME, organism-based. More on the design: dose 1 mg/kg, route intravenous.
Data set [13] concerns Rattus norvegicus. Put plainly: Antiinflammatory activity in Sprague-Dawley rat osteoarthritis model assessed as efficacy at 3 mg/kg, ip after 20 days. The class given is functional. The note with it: route intraperitoneal.
Data set [14] concerns Rattus norvegicus. Nature of the data set: Antiinflammatory activity in Sprague-Dawley rat osteoarthritis model assessed as efficacy at 10 mg/kg, ip after 20 days. The class given is functional. The note with it: route intraperitoneal.
The test system of data set [15] is Rattus norvegicus. Nature of the data set: Antiinflammatory activity in ip dosed Sprague-Dawley rat osteoarthritis model assessed as efficacy measured after 20 days. The class given is functional. The note with it: 480 h.
Data set [16] in a line: Plasma concentration in Sprague-Dawley rat osteoarthritis model at 1 mg/kg, ip after 45 mins. The class given is ADME, organism-based. Details: dose 1 mg/kg, route intraperitoneal.
Data set [17] is described as follows: Plasma concentration in Sprague-Dawley rat osteoarthritis model at 3 mg/kg, ip after 45 mins. The class given is ADME, organism-based. More on the design: dose 3 mg/kg, route intraperitoneal.
Data set [18] is described as follows: Plasma concentration in Sprague-Dawley rat osteoarthritis model at 10 mg/kg, ip after 45 mins. In kind it is ADME, organism-based. Details: dose 10 mg/kg, route intraperitoneal.
Data set [19] concerns Rattus norvegicus. Nature of the data set: Ex vivo receptor occupancy of histamine H3 receptor in Sprague-Dawley rat osteoarthritis model at 1 mg/kg, ip. In kind it is functional. The following applies: route intraperitoneal.
In data set [20] the test system is Rattus norvegicus. Nature of the data set: Ex vivo receptor occupancy of histamine H3 receptor in Sprague-Dawley rat osteoarthritis model at 3 mg/kg, ip. The class given is functional. The note with it: route intraperitoneal.
For data set [21], the system named is Rattus norvegicus. Nature of the data set: Ex vivo receptor occupancy of histamine H3 receptor in Sprague-Dawley rat osteoarthritis model at 10 mg/kg, ip. In kind it is functional. The following applies: route intraperitoneal.
Data set [22] has as its system Rattus norvegicus. Put plainly: Ex vivo receptor occupancy of NET in Sprague-Dawley rat osteoarthritis model at 1 mg/kg, ip. The following applies: route intraperitoneal. The class given is functional.
Data set [23] concerns Rattus norvegicus. Nature of the data set: Ex vivo receptor occupancy of NET in Sprague-Dawley rat osteoarthritis model at 3 mg/kg, ip. The class given is functional. The note with it: route intraperitoneal.
Data set [24] concerns Rattus norvegicus. Nature of the data set: Ex vivo receptor occupancy of NET in Sprague-Dawley rat osteoarthritis model at 10 mg/kg, ip. The following applies: route intraperitoneal. The class given is functional.
Data set [25] has as its system Rattus norvegicus. Nature of the data set: Antiinflammatory activity in ip dosed Sprague-Dawley rat osteoarthritis model assessed as efficacy measured at 370 nM plasma concentration after 20 days. The class given is functional.

Values after ≈ are worked out from the molar mass of the structure shown.

Take `CNCCN(c1ccccc1)c1ccc(OCCN2CCCC2)cc1`: the Kb at Histamine H3 receptor [1] turned out to be 2.4 nM. In addition, the Ki in [2] is more than 70 nM; at Histamine H3 receptor [3], 5.4 nM; at Transporter, 89 nM; at Histamine H3 receptor [4], 1.6 nM.

For `CNCCC(Oc1cccc2cc(OCCN3CCCC3)ccc12)c1ccccc1` (centres undefined), the Kb at Histamine H3 receptor [1] came out at 67 nM. Moreover, the values for the Ki on Histamine H3 receptor [3] and at Transporter were 48 nM and 230 nM, respectively.

Turning to `CNCCC(c1ccccc1)c1ccc(OCCN2CCCC2)cc1` (centres undefined), the Ki in [2] was more than 70 nM; on Histamine H3 receptor [3] it was 5.2 nM; on Transporter, 4.3 nM; on Histamine H3 receptor [4], 1.4 nM.

`CNCCCC(c1ccccc1)c1ccc(OCCN2CCCC2)cc1` (centres undefined): the Kb at Histamine H3 receptor [1] came to 2.1 nM. Besides, the Ki in [2] was more than 70 nM; at Histamine H3 receptor [3], 2.9 nM; at Transporter, 14 nM; on Histamine H3 receptor [4], 0.89 nM.

With `CNCCC(c1ccccc1)c1ccc(O)c2ccc(OCCN3CCCC3)cc12` (centres undefined), the Kb at Histamine H3 receptor [1] was 8.3 nM. In data set [5], this compound came in with a Cmax of 210 ng/mL. Further, the Tmax in data set [6] was found to be 0.25 h. The bioavailability in data set [7] turned out to be 43%. The same compound displayed a Vd in [8] of 8.2 L/kg. This compound also gave a clearance in data set [9] of 7.67 mL/min/kg. The compound further showed a half-life in data set [10] of 12 h. Also, the fraction unbound in [11] and in data set [12] was 0.33 each time. In addition, the Activity is 70% in the data set with Rattus norvegicus [13]; 93% with Rattus norvegicus [14]; 74% in the data set with Rattus norvegicus [19]; 89% in the data set on Rattus norvegicus [20]; 97% with Rattus norvegicus [21]; 88% in the data set on Rattus norvegicus [22]. The Activity came to 96% with Rattus norvegicus [23] and 99% in the data set on Rattus norvegicus [24]. For the same compound, the values for the ED50 with Rattus norvegicus [15] and in the data set on Rattus norvegicus [25] were 1.2 mg/kg and 0.15 µg/mL (≈ 0.371 µM), respectively. The concentration at 0.75 h is 129 ng/mL in data set [16], 382 ng/mL in data set [17] and 1240 ng/mL in data set [18]. Also, the Ki in [2] was 7 nM; at Histamine H3 receptor [3] it was 37 nM; at Transporter, 14 nM; on Histamine H3 receptor [4] it was 7.4 nM.

For `CNCCCN(c1ccccc1)c1ccc(OCCN2CCCC2)cc1`, the Kb at Histamine H3 receptor [1] came to 0.79 nM. Besides, the Ki in [2] was more than 70 nM; at Histamine H3 receptor [3], 0.72 nM; at Transporter, 110 nM; at Histamine H3 receptor [4] it was 0.28 nM.

`CNCCC(c1ccccc1)c1cccc2ccccc12` (centres undefined) yielded a Ki in data set [2] of 2.4 nM. This counts as single-digit nanomolar.
